Values joined by “and” are separate entries in the source; they are usually repeats but may differ in a detail not shown here. Equal values may be shown once.
Tests used:
2-HG production = test: Plasma 2-HG inhibition (LC-MS metabolite analysis in plasma of AML PDx model); format: in vivo, human
[1] = tested on: IDH1(R132H) primary human AML cells; test: Bone marrow AML clearance (flow cytometry), human AML PDx models in NSG mice; format: in vivo
Experimental: (§1) Compounds and Formulation. For in vivo studies, each test article is prepared at an appropriate concentration with vehicle. […] Compound A is prepared fresh at the appropriate concentrations with vehicle every 7 days and stored at 4° C. between doses. […] Cytarabine is prepared fresh weekly by dilution with sterile saline from stock solution of Cytarabine (injection 20 mg/mL, (Pfizer injectables')). Azacitidine (Sigma, Lot #MKBR7212) is formulated in sterile water and is prepared fresh daily immediately before dosing. In vivo human AML PDx models. […] Two models are used in the studies: […] As needed, splenocytes from tumor-bearing mice are used to propagate and expand the models, as described. Each test article is prepared as described above at an appropriate concentration with vehicle to give animals the doses tested in this study at a dosing volume of 10 μL/gram body weight. Mice receiving Compound A (PO, QD) are treated at the indicated doses for the duration of the study. The combination agents are dosed as follows: […] Treated mice are assessed in comparison to vehicle treated and naïve (non-tumor bearing) control mice. Body weight is recorded twice per week. […] AML PDx model propagation. […] Spleens are processed and splenocytes isolated as described below. Two hundred μL per subject of the splenocyte prep is injected IV (intravenous, tail vein) into recipient NSG mice. […] Once engraftment is confirmed, the mice are monitored biweekly until ready to be put on study. […] Submandibular blood is collected. Spleen/Splenocyte Processing and Prep. After excision, a spleen is weighed, and […] is placed in a standard sterile 15 mL polypropylene conical tube containing PBS, and placed on ice. […] The spleen is placed in ice cold sterile PBS in a 15 mL collection tube. The spleen is removed from the collection tube and placed in a 100 micron 50 mL conical tube cell strainer (BD Falcon #352360). The spleen is processed by gentle rubbing of the spleen tissue against the surface of the cell strainer with the end of a 5 mL syringe plunger in a circular motion. The surface of the strainer is rinsed with 10 mL room temperature sterile DPBS (HyClone SH30028) 3 times during the process. […] The cell pellet is collected by centrifugation (300×g) and washed three times with 30 mL sterile DPBS. The cells are counted and resuspended in DPBS at the desired implant concentration. Bone Marrow Collection. […] Flow cytometry analysis of human white cells. Submandibular blood samples from in vivo studies are collected. Fluor-conjugated antibody stains are added according to the manufacturer's instructions (anti-human CD33-PE (clone WM53, BD Cat #555450), anti-human CD14-APC (clone MφpP9, BD Cat #340436), anti-human CD15-V450 (clone HI98, BD Cat #561584), anti-human CD117-BV421 (clone YB5.B8, BD Cat #562434), anti-human […]7 (clone ICRF44, BD Cat #557754), anti-human […]7 (clone HI30, BD Cat #557748), and anti-human CD3-FITC (clone SK7, BD Cat #340542)). The samples are incubated for 30 minutes at room temperature, protected from light. After the incubation, 1.5 mL 1×BD Lyse/Fix (37° C., (BD #558049)) is added to each sample and incubated for 12 minutes at room temperature. The tubes are centrifuged at 300×g for 7 minutes. BD Lyse/Fix solution is aspirated and the cell pellet washed with stain/wash buffer 3 times (1 wash step consisted of: pellet resuspended in 3 mL stain/wash buffer, centrifuged at 300×g, aspirated wash). Fixed cells are then resuspended in 300 to 400 μL stain/wash buffer. Samples are analyzed on a Becton Dickinson FACSVerse Flow cytometer (Cat #651155 Serial #Z6511550447) using standard flow cytometry principles and techniques. Samples are analyzed on the same day as they are stained and fixed. Population gating and data analysis of percent population are performed in the FACSuite software on the FACSVerse cytometer. Percent population values from the data analysis are plotted in Graphpad Prism or in JMP13. […]

[2] = tested on: IDH1(R132H) primary human AML cells; test: AML clearance in peripheral blood (flow cytometry, % hCD33+hCD45+ of total white cells), human AML PDx models in NSG mice; format: in vivo; conditions: for AML clearance (% hCD33 + hCD45+ (of total white cells)): 1 mg/kg Azacitidine, (QDx5, rest2)X2, 14 days off, each value one animal, 1 mg/kg
Experimental: as §1

[3] = tested on: IDH1(R132H) primary human AML cells; test: AML cell differentiation in blood (flow cytometry, % hCD33+hCD11b+ of hCD45+ cells), human AML PDx models in NSG mice; format: in vivo; conditions: for AML cell differentiation (% hCD33 + hCD11b+ (of hCD45+ cells)): 1 mg/kg Azacitidine, (QDx5, rest2)X2, 14 days off, each value one animal, 1 mg/kg
Experimental: as §1

[4] = 1 mg/kg Azacitidine, IP, (QDx5, rest 2)x2 14 days off, each line one animal
[5] = 1 mg/kg Azacitidine, (QD × 5, rest 2)x2, 14 days off, each line one animal

SMILES: Nc1ncn([C@@H]2O[C@H](CO)[C@@H](O)[C@H]2O)c(=O)n1 [Azacitidine, reference compound]
- % Inhibition of 2-HG (plasma) (2-HG production; [4]): 32.923% and 22.691% and 56.872% and 51.81% and 75.405% and 73.207% and 49.201%
- Naive Subtracted 2-HG (plasma) (2-HG production; [4]): 4.603 µM and 5.305 µM and 2.959 µM and 3.307 µM and 1.688 µM and 1.838 µM and 3.486 µM
- Plasma 2-HG (2-HG production; [4]): 7.539 µM and 8.241 µM and 5.896 µM and 6.243 µM and 4.624 µM and 4.775 µM and 6.422 µM
- % plasma 2-HG (treatment group value) (2-HG production; group G: azacitidine (1 mg/kg), vehicle 100%): 48%
- Bone Marrow AML Clearance: % hCD33 + hCD45+ (% of white cells) [1, 5]: 49.81% and 60.61% and 72.4% and 43.12%
- Bone Marrow AML Clearance: % hCD45+ (% of white cells) [1, 5]: 49.85% and 61% and 72.52% and 43.15%
- % human AML cells in bone marrow (of white cells; lower = more clearance) ([1]; group G: azacitidine (1 mg/kg), vehicle 94%): 55%
- AML clearance (% hCD33 + hCD45+ (of total white cells)) ([2]; Treatment day 2): 23.43% and 20.98% and 19.8% and 15.03% and 22.26% and 10.88% and 16.63%
- AML clearance (% hCD33 + hCD45+ (of total white cells)) ([2]; Treatment day 15): 33.19% and 44.55% and 30.95% and 35.67% and 30.39% and 28.23% and 30.75%
- AML clearance (% hCD33 + hCD45+ (of total white cells)) ([2]; Treatment day 28): 13.99% and 12.05% and 15.33% and 16.77% and 13.73% and 22.64% and 22.81%
- AML clearance (% hCD33 + hCD45+ (of total white cells)) ([2]; Treatment day 43): 32.23% and 23.27% and 18.57% and 27.48% and 11.38% and 25.34% and 20.44%
- AML clearance (% hCD33 + hCD45+ (of total white cells)) ([2]; Treatment day 58): 11.92% and 32.12% and 11.16% and 7.63% and 9.47% and 13.4%
- AML clearance (% hCD33 + hCD45+ (of total white cells)) ([2]; Treatment day 77): 12.91% and 26.37% and 20.18% and 12.58% and 15.11% and 11.64%
- AML clearance (% hCD33 + hCD45+ (of total white cells)) ([2]; Treatment day 98): 62.54% and 70.18% and 65.61% and 37.53% and 38.23%
- AML clearance (% hCD33 + hCD45+ (of total white cells)) ([2]; Treatment day −19): 7.65% and 4.33% and 3.14% and 6.28% and 3.24% and 2.46% and 2.87%
- % peripheral blood AML cells (treatment group value) ([2]; day 43, group G: azacitidine (1 mg/kg), vehicle 71%): 22%
- AML cell differentiation (% hCD33 + hCD11b+ (of hCD45+ cells)) ([3]; Treatment day 2): 10.07% and 14.27% and 13.08% and 12.37% and 5.55% and 9.38% and 9.55%
- AML cell differentiation (% hCD33 + hCD11b+ (of hCD45+ cells)) ([3]; Treatment day 15): 12.12% and 16.08% and 11.64% and 18.36% and 13.75% and 11.72% and 18.15%
- AML cell differentiation (% hCD33 + hCD11b+ (of hCD45+ cells)) ([3]; Treatment day 28): 21.14% and 21.62% and 19.07% and 20.9% and 16.95% and 20.64% and 21.18%
- AML cell differentiation (% hCD33 + hCD11b+ (of hCD45+ cells)) ([3]; Treatment day 43): 10.64% and 9.94% and 11.58% and 6.98% and 6.67% and 12.03% and 10.48%
- AML cell differentiation (% hCD33 + hCD11b+ (of hCD45+ cells)) ([3]; Treatment day 58): 14.45% and 9.99% and 10.78% and 11.33% and 11.72% and 13.55%
- AML cell differentiation (% hCD33 + hCD11b+ (of hCD45+ cells)) ([3]; Treatment day 77): 10.12% and 10.78% and 8.78% and 6.76% and 10.92% and 11.76%
- AML cell differentiation (% hCD33 + hCD11b+ (of hCD45+ cells)) ([3]; Treatment day 98): 10.31% and 14.59% and 17.5% and 8.29% and 16.64%
- AML cell differentiation (% hCD33 + hCD11b+ (of hCD45+ cells)) ([3]; Treatment day −19): 1.53% and 0% (2×) and 2.59% and 0.27% and 2.72% and 1.16%
- % AML cell differentiation (treatment group value) ([3]; day 43, group G: azacitidine (1 mg/kg), vehicle 15%): 10%

From patent publication US12440493B2, “Combination therapy for treating cancer comprising substituted piperazines” (Eli Lilly and Company, priority 2020, dated 2025)
